# Assays:
# CYPIR (Rice Flatsedge) [1] = assay: Postemergence weed control under flooded paddy conditions; format: in vivo, Cyperus iria; conditions: postemergence weeds, 3-4 weeks after treatment
# In short: (§1)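 Weeds 3 to 5 cm tall and rice seedlings at the 1.5 to 2.5 leaf stage were flooded, with water held 1.5 to 3 cm above the soil. Compounds in 50/50 v/v aqueous/acetone went into the flood water at about 0.0313 to 0.500 kg/ha. Visual 0-9 ratings versus control were made 3 to 4 weeks later.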
# [2] = test system: TRZAWR (Wheat, Winter, cv Riband); assay: Preemergence herbicidal evaluation; format: in vivo, Triticum aestivum; conditions: rated 4-5 weeks after treatment
# In short: (§2)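 In this greenhouse assay, monocot and dicot seeds are planted in soil and treated prior to emergence with an aqueous acetone spray (about 0.0156-0.500 kg/ha). Plants are assessed visually against control on a 0-9 scale after 4-5 weeks.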
# SETVI (Foxtail, Green) [3] = assay: Postemergence herbicidal evaluation; format: in vivo, Setaria viridis; conditions: postemergence
# In short: (§3)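 Seedlings grown about two weeks were sprayed at 40 psi with compound dispersed in 50/50 acetone/water plus 0.5% TWEEN 20, at about 0.0156 to 0.500 kg/ha. Plants were kept in the greenhouse and scored 4–5 weeks later on a 0–9 visual scale against untreated controls.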
# ZEAMX (Corn, Field) [4] = assay: Postemergence herbicidal evaluation; format: in vivo, Zea mays; conditions: postemergence
# In short: as §3
# SETVI (Foxtail, Green) [5] = assay: Preemergence herbicidal evaluation; format: in vivo, Setaria viridis; conditions: rated 4-5 weeks after treatment
# In short: as §2
# [6] = test system: SAGPY (Arrowhead (Pygmaea)); assay: Postemergence weed control under flooded paddy conditions; format: in vivo, Sagittaria pygmaea; conditions: postemergence weeds, 3-4 weeks after treatment
# In short: as §1
# CYPIR (Rice Flatsedge) [7] = assay: Preemergence weed control under flooded paddy conditions; format: in vivo, Cyperus iria; conditions: rated 3-4 weeks after treatment
# In short: (§4)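 Flooded-pot preemergence screen with silt loam and seeds in the upper 0.5 cm. Dose about 0.0313 to 0.500 kg/ha, delivered into flood water; visual 0-9 score after 3 to 4 weeks.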
# ZEAMX (Corn, Field) [8] = assay: Preemergence herbicidal evaluation; format: in vivo, Zea mays; conditions: rated 4-5 weeks after treatment
# In short: as §2
# ORYSAT (Rice, Tebonnet) = assay: Postemergence herbicidal evaluation; format: in vivo, Oryza sativa, (L.) Tebonnet; conditions: postemergence
# In short: as §3
# [9] = test system: ECHORC (Watergrass (Calif.)); assay: Postemergence weed control under flooded paddy conditions; format: in vivo, Echinochloa oryzoides; conditions: postemergence weeds, 3-4 weeks after treatment
# In short: as §1
# [10] = test system: ECHORC (Watergrass (Calif.)); assay: Preemergence weed control under flooded paddy conditions; format: in vivo, Echinochloa oryzoides; conditions: rated 3-4 weeks after treatment
# In short: as §4
# CYPSE (Flatsedge) [11] = assay: as above; format: in vivo, Cyperus serotinus; conditions: rated 3-4 weeks after treatment
# In short: as §4
# ECHCG (Barnyardgrass) = assay: Preemergence herbicidal evaluation; format: in vivo, Echinochloa crus-galli; conditions: rated 4-5 weeks after treatment
# In short: as §2
# CYPSE (Flatsedge) [12] = assay: Postemergence weed control under flooded paddy conditions; format: in vivo, Cyperus serotinus; conditions: postemergence weeds, 3-4 weeks after treatment
# In short: as §1
compound,measurement,setting,value
"COC(=O)CN1C(=O)CSC1=Nc1cc(-n2c(=O)cc(C(F)(F)F)n(C)c2=O)c(F)cc1Cl [Compound 17, Methyl 2-{{2-chloro-5-[3,6-dihydro-3-methyl-2,6-dioxo-4-(trifluoromethyl)-1(2H)-pyrimidinyl]-4-fluorophenyl}imino}-4-oxo-3-thiazolidineacetate]",Herbicidal rating CYPIR,CYPIR (Rice Flatsedge) [1]; rate 0.0313 kg/ha,0.0
same,Herbicidal rating CYPIR,CYPIR (Rice Flatsedge) [1]; rate 0.0625 kg/ha,0.0
same,Herbicidal rating CYPIR,CYPIR (Rice Flatsedge) [1]; rate 0.1250 kg/ha,6.0
same,Herbicidal rating CYPIR,CYPIR (Rice Flatsedge) [1]; rate 0.2500 kg/ha,9.0
same,TRZAWR preemergence herbicidal rating,[2]; rate 0.0156 kg/ha,0.0
same,TRZAWR preemergence herbicidal rating,[2]; rate 0.0313 kg/ha,0.0
same,TRZAWR preemergence herbicidal rating,[2]; rate 0.0625 kg/ha,0.0
same,TRZAWR preemergence herbicidal rating,[2]; rate 0.1250 kg/ha,2.0
same,TRZAWR preemergence herbicidal rating,[2]; rate 0.2500 kg/ha,7.0
same,TRZAWR preemergence herbicidal rating,[2]; rate 0.5000 kg/ha,7.0
same,SETVI herbicidal rating,"SETVI (Foxtail, Green) [3]; rate 0.0156 kg/ha",2.0
same,SETVI herbicidal rating,"SETVI (Foxtail, Green) [3]; rate 0.0313 kg/ha",2.5
same,SETVI herbicidal rating,"SETVI (Foxtail, Green) [3]; rate 0.0625 kg/ha",4.0
same,SETVI herbicidal rating,"SETVI (Foxtail, Green) [3]; rate 0.1250 kg/ha",5.5
same,ZEAMX herbicidal rating,"ZEAMX (Corn, Field) [4]; rate 0.0156 kg/ha",7.0
same,ZEAMX herbicidal rating,"ZEAMX (Corn, Field) [4]; rate 0.0313 kg/ha",7.3
same,ZEAMX herbicidal rating,"ZEAMX (Corn, Field) [4]; rate 0.0625 kg/ha",7.8
same,ZEAMX herbicidal rating,"ZEAMX (Corn, Field) [4]; rate 0.1250 kg/ha",7.8
same,SETVI preemergence herbicidal rating,"SETVI (Foxtail, Green) [5]; rate 0.0156 kg/ha",0.5
same,SETVI preemergence herbicidal rating,"SETVI (Foxtail, Green) [5]; rate 0.0313 kg/ha",1.3
same,SETVI preemergence herbicidal rating,"SETVI (Foxtail, Green) [5]; rate 0.0625 kg/ha",2.3
same,SETVI preemergence herbicidal rating,"SETVI (Foxtail, Green) [5]; rate 0.1250 kg/ha",6.7
same,SETVI preemergence herbicidal rating,"SETVI (Foxtail, Green) [5]; rate 0.2500 kg/ha",9.0
same,SETVI preemergence herbicidal rating,"SETVI (Foxtail, Green) [5]; rate 0.5000 kg/ha",9.0
same,Herbicidal rating SAGPY,[6]; rate 0.0313 kg/ha,0.0
same,Herbicidal rating SAGPY,[6]; rate 0.0625 kg/ha,0.0
same,Herbicidal rating SAGPY,[6]; rate 0.1250 kg/ha,4.0
same,Herbicidal rating SAGPY,[6]; rate 0.2500 kg/ha,4.0
same,Herbicidal rating CYPIR,CYPIR (Rice Flatsedge) [7]; 0.0313 kg/ha,0.0
same,Herbicidal rating CYPIR,CYPIR (Rice Flatsedge) [7]; 0.0625 kg/ha,0.0
same,Herbicidal rating CYPIR,CYPIR (Rice Flatsedge) [7]; 0.1250 kg/ha,6.0
same,Herbicidal rating CYPIR,CYPIR (Rice Flatsedge) [7]; 0.2500 kg/ha,9.0
same,ZEAMX preemergence herbicidal rating,"ZEAMX (Corn, Field) [8]; rate 0.0156 kg/ha",0.0
same,ZEAMX preemergence herbicidal rating,"ZEAMX (Corn, Field) [8]; rate 0.0313 kg/ha",0.3
same,ZEAMX preemergence herbicidal rating,"ZEAMX (Corn, Field) [8]; rate 0.0625 kg/ha",1.0
same,ZEAMX preemergence herbicidal rating,"ZEAMX (Corn, Field) [8]; rate 0.1250 kg/ha",1.0
same,ZEAMX preemergence herbicidal rating,"ZEAMX (Corn, Field) [8]; rate 0.2500 kg/ha",3.3
same,ZEAMX preemergence herbicidal rating,"ZEAMX (Corn, Field) [8]; rate 0.5000 kg/ha",5.5
same,ORYSAT herbicidal rating,"ORYSAT (Rice, Tebonnet); rate 0.0156 kg/ha",1.8
same,ORYSAT herbicidal rating,"ORYSAT (Rice, Tebonnet); rate 0.0313 kg/ha",3.0
same,ORYSAT herbicidal rating,"ORYSAT (Rice, Tebonnet); rate 0.0625 kg/ha",3.5
same,ORYSAT herbicidal rating,"ORYSAT (Rice, Tebonnet); rate 0.1250 kg/ha",5.0
same,Herbicidal rating ECHORC,[9]; rate 0.0313 kg/ha,4.0
same,Herbicidal rating ECHORC,[9]; rate 0.0625 kg/ha,9.0
same,Herbicidal rating ECHORC,[9]; rate 0.1250 kg/ha,9.0
same,Herbicidal rating ECHORC,[9]; rate 0.2500 kg/ha,9.0
same,Herbicidal rating ECHORC,[10]; 0.0313 kg/ha,4.0
same,Herbicidal rating ECHORC,[10]; 0.0625 kg/ha,9.0
same,Herbicidal rating ECHORC,[10]; 0.1250 kg/ha,9.0
same,Herbicidal rating ECHORC,[10]; 0.2500 kg/ha,9.0
same,Herbicidal rating CYPSE,CYPSE (Flatsedge) [11]; 0.0313 kg/ha,9.0
same,Herbicidal rating CYPSE,CYPSE (Flatsedge) [11]; 0.0625 kg/ha,9.0
same,Herbicidal rating CYPSE,CYPSE (Flatsedge) [11]; 0.1250 kg/ha,9.0
same,Herbicidal rating CYPSE,CYPSE (Flatsedge) [11]; 0.2500 kg/ha,9.0
same,ECHCG preemergence herbicidal rating,ECHCG (Barnyardgrass); rate 0.0156 kg/ha,0.5
same,ECHCG preemergence herbicidal rating,ECHCG (Barnyardgrass); rate 0.0313 kg/ha,0.7
same,ECHCG preemergence herbicidal rating,ECHCG (Barnyardgrass); rate 0.0625 kg/ha,1.0
same,ECHCG preemergence herbicidal rating,ECHCG (Barnyardgrass); rate 0.1250 kg/ha,0.7
same,ECHCG preemergence herbicidal rating,ECHCG (Barnyardgrass); rate 0.2500 kg/ha,4.3
same,ECHCG preemergence herbicidal rating,ECHCG (Barnyardgrass); rate 0.5000 kg/ha,9.0
same,Herbicidal rating CYPSE,CYPSE (Flatsedge) [12]; rate 0.0313 kg/ha,9.0
same,Herbicidal rating CYPSE,CYPSE (Flatsedge) [12]; rate 0.0625 kg/ha,9.0
same,Herbicidal rating CYPSE,CYPSE (Flatsedge) [12]; rate 0.1250 kg/ha,9.0
same,Herbicidal rating CYPSE,CYPSE (Flatsedge) [12]; rate 0.2500 kg/ha,9.0

# Source: patent publication US20020137929A1, “1 - (3-heterocyclylphenyl) isothiourea, -isourea, -guanidine and -amidine herbicidal agents” (Intellectual Property Department, BASF Aktiengesellschaft, priority 1998, published 2002)
